# Test results taken from PubChem BioAssay (NCI).
#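 Each compound was tested at five concentrations against cells in 96-well plates for 48 hours. GI50 = concentration required for 50% inhibition of growth. TGI denotes the concentration required for complete inhibition of growth.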
# What was measured:
# Experiment in all cases: DTP human tumour cell line panel, 48 h
# [1] = system: A549 NSCLC
# [2] = system: EKVX NSCLC
# [3] = system: HT29 colon
# [4] = system: LOX IMVI melanoma
# [5] = system: OVCAR-3 ovarian
# [6] = system: SF-295 CNS
# [7] = system: SK-MEL-5 melanoma
# [8] = system: SNB-19 CNS
# [9] = system: U251 CNS
# [10] = system: UO-31 renal
Structure (SMILES),TGI [1] [µM],TGI [2] [µM],TGI [3] [µM],TGI [4] [µM],TGI [5] [µM],TGI [6] [µM],TGI [7] [µM],TGI [8] [µM],TGI [9] [µM],TGI [10] [µM],GI50 [2] [µM],GI50 [4] [µM],GI50 [5] [µM],GI50 [6] [µM],GI50 [7] [µM],GI50 [8] [µM],GI50 [10] [µM],GI50 [1] [µM],GI50 [3] [µM],GI50 [9] [µM]
CCOC(=O)n1cncc1CC(NC(=O)Cc1c(C(=O)C=C(C)C)[nH]c2ccccc12)C(=O)OC (configuration not stated),45.3,33.9,66.6,35.6,38.9,35.5,37.5,30.5,44.9,32.3,–,–,–,–,–,–,–,–,–,–
COc1cccc(-c2nc3c(C(=O)NCCN(C)C)cccc3[nH]2)c1,46.2,97.5,42,34.9,> 75.9,47.6,31.5,> 100,> 61.6,29.1,–,–,–,–,–,–,–,–,–,–
O=S(=O)(O)c1c(N=Nc2c(O)ccc3ccccc23)ccc2ccccc12,> 100,> 100,> 100,> 100,> 100,> 100,> 100,> 100,> 100,> 100,–,–,–,–,–,–,–,–,–,–
Nc1nc(SCc2ccccc2)c2ncn(Cc3ccccc3)c2n1,> 100,> 100,> 100,> 100,> 100,> 100,> 100,> 100,> 100,> 100,–,–,–,–,–,–,–,–,–,–
C=C1C(=O)OC2C1C(OC(=O)/C(C)=C/C)CC1(C)C(=O)CCC(=C)C21 (configuration not stated),43.7,33.8,22,13.2,19.7,35.8,22.8,–,> 54.4,13.3,–,–,–,–,–,–,–,–,–,–
CC1(C)COC(/C=C/C2=NC(C)(C)CO2)=N1,> 100,41.8,98.4,16.7,30.8,> 100,27.3,> 100,64.3,64.3,–,–,–,–,–,–,–,–,–,–
CN(C)Cc1ccc(C(=O)Nc2ccc3ncnc(Nc4ccc(Oc5cccc(F)c5)c(Cl)c4)c3c2)cc1,–,2.7,–,3.15,2.92,3.11,2.97,3.09,–,2.59,1.3,1.69,1.5,1.71,1.59,1.66,1.3,–,–,–
COC(=O)C1=CC[C@@H]2C(C(=O)O)=CO[C@@H](OC3OC(CO)C(O)C(O)C3O)[C@H]12 (some centres not stated),> 300,> 300,> 300,> 300,> 300,> 193,> 288,> 300,> 300,> 300,–,–,–,–,–,–,–,–,–,–
c1ccc2sc(C3(N4CCCCC4)CCCC3)cc2c1,22.3,22,13.5,32.7,21.8,23.7,22.9,29.2,–,33.8,–,–,–,–,–,–,–,–,–,–
COc1cc(-c2coc3c(OC)c(OC4OC(CO)C(O)C(O)C4O)c(OC)cc3c2=O)cc(OC)c1C (configuration not stated),> 55.6,27.3,35.1,> 31.2,> 100,28.5,27.8,28.6,> 34.6,21,–,–,–,–,–,–,–,–,–,–
CC(=O)OCC1OC(O[C@@H]2c3c(O)c4c(c(O)c3C3=C(NN(c5ccc([N+](=O)[O-])cc5[N+](=O)[O-])[Se]3=O)[C@@]2(C)O)C(=O)c2ccccc2C4=O)C(OC(C)=O)C(OC(C)=O)C1OC(C)=O (some centres not stated),2.07,0.677,0.57,0.319,0.336,1,0.42,–,0.458,0.548,–,–,–,–,–,–,–,–,–,–
S=C(Nc1ccc(Cl)cc1)Nc1ccc(Cl)cc1 (tested in a mixture with another compound),> 100,> 100,4.88,3.57,4.48,4.38,2.94,> 100,3.52,34.9,2.25,1.71,1.69,1.75,1.55,3.25,2.26,2.38,1.96,1.64
[C-]#[O+].[C-]#[O+].[Ir].[O-]c1cccc2cccnc12,> 100,> 100,> 100,> 100,–,> 100,> 100,> 100,> 100,> 100,> 100,> 100,–,> 100,–,> 100,> 100,> 100,> 100,> 100
COc1ccc(SC(C)(SC)c2ccccn2)c(OC)n1 (configuration not stated),> 100,> 100,> 100,> 100,> 100,> 100,> 100,> 100,> 100,> 100,–,–,–,–,–,–,–,–,–,–
N#C/C=C1\C=CC(O)C(O)C1OC1OC(CO)C(O)C(O)C1O (configuration not stated),> 100,> 100,> 100,> 100,> 100,> 100,> 100,> 100,> 100,> 100,–,–,–,–,–,–,–,–,–,–
S=C1N(c2ccc(Cl)cc2)C2=C(N=Nc3ccccc3)C(=Nc3ccccc3S2)N1c1ccccn1,29.1,26.6,35.6,24.4,27.2,32.3,23.4,28.3,23.7,21.7,–,–,–,–,–,–,–,–,–,–
O=C1c2ccccc2-c2ccc(N=[N+]([O-])c3ccc4c(c3)C(=O)c3ccccc3-4)cc21,> 100,> 100,> 100,> 100,> 100,> 100,> 100,> 100,> 100,> 100,–,–,–,–,–,–,–,–,–,–
O=S(=O)(c1ccc(I)cc1)N(c1ccccc1)S(=O)(=O)C(F)(F)C(F)(F)C(F)(F)C(F)(F)F,> 100,> 100,51.2,> 100,50.9,71.8,–,> 100,> 100,> 100,–,–,–,–,–,–,–,–,–,–
CC(C)C(N=Cc1ccccc1O)C(=O)O (configuration not stated),> 100,> 100,> 100,> 100,> 100,> 100,> 100,> 100,> 100,> 100,–,–,–,–,–,–,–,–,–,–
CC(O)C(O)C(N)CC=O (configuration not stated),> 500,> 500,> 500,> 500,> 500,> 500,> 500,> 500,> 500,> 500,–,–,–,–,–,–,–,–,–,–
O=C(O)C1CC(c2ccccc2)=NN1c1ccccc1 (configuration not stated),> 100,88.9,> 100,> 100,> 100,> 100,> 100,> 100,> 100,> 100,–,–,–,–,–,–,–,–,–,–
O=C1/C(=C\c2ccc(-c3ccc(Cl)cc3Cl)o2)SC2N=C(COc3ccc(Cl)cc3)NN12 (configuration not stated),> 100,86.5,> 100,> 100,> 100,> 100,> 100,> 100,98.2,> 100,–,–,–,–,–,–,–,–,–,–
Fc1ccc(-c2ccc(-c3nnc(-c4cc(F)c(Cl)cc4Cl)o3)o2)cc1Cl,> 100,> 100,50.9,48.9,72.5,> 100,31.9,> 100,> 100,> 100,26.5,20.8,21.9,30.2,17,25.4,34.7,37.3,22.7,32.8
O=S(O)c1cc(Cl)cc(Cl)c1O,–,> 100,> 100,> 100,> 100,–,–,> 100,> 100,> 100,–,–,–,–,–,–,–,–,–,–
O=C(/C=C/c1ccc(O)cc1)NCCc1ccc(O)cc1,> 12.5,> 12.5,> 12.5,> 12.5,> 12.5,> 12.5,> 12.5,> 12.5,> 12.5,> 12.5,–,–,–,–,–,–,–,–,–,–
C[N+]1(C)CCC(C#N)(c2ccccc2)CC1,> 100,> 100,> 100,–,–,> 100,> 100,> 100,> 100,> 100,–,–,–,–,–,–,–,–,–,–
